Results published in ChEMBL document CHEMBL1159332, “Equilibrating isomers: bromoindoles and a seco-xanthine encountered during a study of nematocides from the southern Australian marine sponge Hymeniacidon sp” (2002).
The source made the active and inactive calls. The calls are words filed in the database; no cut-off is given here.

Tested on: Haemonchus contortus
Experiment: Nematocidal activity against Haemonchus contortus
Format: functional

| SMILES | LD99 | Activity |
| --- | --- | --- |
| COC(=O)/C=C\c1c[nH]c2cc(Br)ccc12 | 50 µg/mL | – |
| CCOC(=O)/C=C\c1c[nH]c2cc(Br)ccc12 | 42 µg/mL | – |
| CNc1c(N(C)C=O)c(=O)n(C)c(=O)n1C | – | inactive |
| CCOC(=O)/C=C/c1c[nH]c2cc(Br)ccc12 | 42 µg/mL | – |
| COC(=O)/C=C/c1c[nH]c2cc(Br)ccc12 | 50 µg/mL | – |
